Results reported in patent EP2061765B1, “Serine-threonine protein kinase and PARP modulators” (Senhwa Biosciences, Inc., priority 2006, dated 2008).

The compounds below were run on HCT-116 (assay: Cell proliferation assay (Alamar Blue)). Details: Homo sapiens, 96 h, HCT-116 cells, four days.
Type: cell-based

IC50 [µM]	SMILES
1.94	O=C(O)c1ccc2c(c1)nc(Nc1ccccc1)c1nc(NC3CC3)ncc12 [drawing 318]
> 10	CCOc1ncc2c(n1)c(Nc1cccc(C(F)(F)F)c1)nc1cc(C(=O)O)ccc12 [drawing 336]
> 10	COCCNc1ncc2c(n1)c(Nc1ccc(F)c(Cl)c1)nc1cc(C(=O)O)ccc12 [drawing 346]
> 10	C#Cc1cccc(Nc2nc3cc(C(=O)O)ccc3c3cnc(NCCCOC(C)C)nc23)c1 [drawing 349]
> 10	Cc1cccc(Nc2nc3cc(C(=O)O)ccc3c3cnccc23)c1 [drawing 356]

The compounds below were run on MDAMB231 (assay: Cell proliferation assay (Alamar Blue)). Details: Homo sapiens, MDA-MB-231, 96 h, MDAMB231 cells, four days.
Type: cell-based
Procedure: (§1) A representative cell-proliferation assay protocol using Alamar Blue dye (stored at 4°C, use 20ul per well) is described hereafter. 96-well plate setup and compound treatment • a. Split and trypsinize cells. • b. Count cells using hemocytometer. • c. Plate 4,000-5,000 cells per well in 100 µl of medium and seed into a 96-well plate according to the following plate layout. Add cell culture medium only to wells B10 to B12. Wells B1 to B9 have cells but no compound added. [formula] [formula] • d. Add 100 µl of 2X drug dilution to each well in a concentration shown in the plate layout above. At the same time, add 100 µl of media into the control wells (wells B10 to B12). Total volume is 200 µl/well. • e. Incubate four (4) days at 37°C, 5% CO2 in a humidified incubator. • f. Add 20µl Alamar Blue reagent to each well. • g. Incubate for four (4) hours at 37°C, 5% CO2 in a humidified incubator. • h. Record fluorescence at an excitation wavelength of 544nm and emission wavelength of 590nm using a microplate reader.
(§2) In the assays, cells are cultured with a test compound for approximately four days, the dye then is added to the cells and fluorescence of […] dye is detected after approximately four hours. Different types of cells can be utilized in the assays (e.g., HCT-116 human colorectal carcinoma cells, PC-3 human prostatic cancer cells and MiaPaca human pancreatic carcinoma cells). Anti-proliferative effects of representative compounds are provided hereafter.

SMILES	IC50 [µM]
C#Cc1cccc(Nc2nc3cc(C(=O)O)ccc3c3cnc(NC4CC4)nc23)c1 [drawing 398]	4.9
COCCNc1ncc2c(n1)c(Nc1ccccc1)nc1cc(C(=O)O)ccc12 [drawing 391]	24.4
O=C(O)c1ccc2c(c1)nc(Nc1cccc(Cl)c1)c1nc(O)ncc12 [drawing 421]	> 50
C#Cc1cccc(Nc2nc3cc(C(=O)O)ccc3c3cnc(NCCCOCC)nc23)c1 [drawing 419]	5.22
Nc1ncc2c(n1)c(Nc1ccc(F)c(Cl)c1)nc1cc(C(=O)O)ccc12 [drawing 415]	6.53
CCOc1ncc2c(n1)c(Nc1cccc(C(F)(F)F)c1)nc1cc(C(=O)O)ccc12 [drawing 407]	26.5
CCCNc1ncc2c(n1)c(Nc1ccccc1)nc1cc(C(=O)O)ccc12 [drawing 390]	18.2
O=C(O)c1ccc2c(c1)nc(Nc1ccccc1)c1nc(NCCCO)ncc12 [drawing 393]	48.2
CN(C)c1ncc2c(n1)c(Nc1cccc(Cl)c1)nc1cc(C(=O)O)ccc12 [drawing 409]	9.82
Nc1ncc2c(n1)c(Nc1cccc(Cl)c1)nc1cc(C(=O)O)ccc12 [drawing 410]	4.12
C#Cc1cccc(Nc2nc3cc(C(=O)O)ccc3c3cnc(NC4CCNCC4)nc23)c1 [drawing 401]	> 50
O=C(O)c1ccc2c(c1)nc(Nc1cccc(Cl)c1)c1nc(NC3CC3)ncc12 [drawing 405]	3.93
O=C(O)c1ccc2c(c1)nc(Nc1ccccc1)c1nc(NCCCN3CCOCC3)ncc12 [drawing 397]	> 50
COCCNc1ncc2c(n1)c(Nc1ccc(F)c(Cl)c1)nc1cc(C(=O)O)ccc12 [drawing 417]	12.6
C#Cc1cccc(Nc2nc3cc(C(=O)O)ccc3c3cnc(NCCC)nc23)c1 [drawing 399]	10.4
O=C(O)c1ccc2c(c1)nc(Nc1ccc(Cl)c(C(F)(F)F)c1)c1ccncc12 [drawing 404]	4.43

SMILES	IC50 [µM]
O=C(O)c1ccc2c(c1)nc(Nc1ccccc1)c1nc(NCCN3CCOCC3)ncc12 [drawing 396]	2.44
O=C(O)c1ccc2c(c1)nc(Nc1ccccc1)c1nc(NCCO)ncc12 [drawing 392]	> 50
CCNc1ncc2c(n1)c(Nc1cccc(Cl)c1)nc1cc(C(=O)O)ccc12 [drawing 413]	6.87
O=C(O)c1ccc2c(c1)nc(Nc1ccccc1)c1nc(NC3CCNCC3)ncc12 [drawing 394]	> 50
C#Cc1cccc(Nc2nc3cc(C(=O)O)ccc3c3cnc(NCCOC)nc23)c1 [drawing 400]	4.74
O=C(O)c1ccc2c(c1)nc(Nc1ccc(F)c(Cl)c1)c1ncncc12 [drawing 374]	1.11
C#Cc1cccc(Nc2nc3cc(C(=O)O)ccc3c3cnc(NCCCOC(C)C)nc23)c1 [drawing 420]	7.05
O=C(O)c1ccc2c(c1)nc(Nc1cccc(C(F)(F)F)c1)c1ncncc12 [drawing 406]	2.93
O=C(O)c1ccc2c(c1)nc(Nc1ccccc1)c1nc(NC3CC3)ncc12 [drawing 389]	0.73
CNc1ncc2c(n1)c(Nc1cccc(Cl)c1)nc1cc(C(=O)O)ccc12 [drawing 408]	8.28
C#Cc1cccc(Nc2nc3cc(C(=O)O)ccc3c3cnc(NCCOCC)nc23)c1 [drawing 418]	31.6
CNc1ncc2c(n1)c(Nc1ccc(F)c(Cl)c1)nc1cc(C(=O)O)ccc12 [drawing 414]	15.8
O=C(O)c1ccc2c(c1)nc(Nc1ccc(F)c(Cl)c1)c1nc(NC3CC3)ncc12 [drawing 416]	7.12
CCN(CC)CCNc1ncc2c(n1)c(Nc1ccccc1)nc1cc(C(=O)O)ccc12 [drawing 395]	10.5
CC(C)Nc1ncc2c(n1)c(Nc1cccc(Cl)c1)nc1cc(C(=O)O)ccc12 [drawing 411]	20.8
C#Cc1cccc(Nc2nc3cc(C(=O)O)ccc3c3cnc(NC)nc23)c1 [drawing 403]	5.21

Continued, values first:

IC50 [µM]	SMILES
5.48	O=C(O)c1ccc2c(c1)nc(Nc1ccc(F)c(Cl)c1)c1nc(NCc3cccnc3)ncc12 [drawing 438]
19.2	O=C(O)c1ccc2c(c1)nc(Nc1ccccc1)c1nc(Nc3ccccc3)ncc12 [drawing 440]
25.4	COC(CNc1ncc2c(n1)c(Nc1ccc(F)c(Cl)c1)nc1cc(C(=O)O)ccc12)OC [drawing 434]
27.2	COC(=O)c1ccc2c(c1)nc(Nc1cccc(Cl)c1)c1nc(NCCC(N)=O)ncc12 [drawing 424]
> 50	O=C(O)CCNc1ncc2c(n1)c(Nc1cccc(Cl)c1)nc1cc(C(=O)O)ccc12 [drawing 426]
33.7	O=C(O)c1ccc2c(c1)nc(Nc1ccc(F)c(Cl)c1)c1nc(NCc3ccccn3)ncc12 [drawing 433]
10.5	CNC(=O)c1ccc2c(c1)nc(Nc1cccc(C(F)(F)F)c1)c1nc(NC3CC3)ncc12 [drawing 437]
2.52	CCOC(=O)CCNC(=O)c1ccc2c(c1)nc(Nc1cccc(C(F)(F)F)c1)c1nc(NC3CC3)ncc12 [drawing 442]
17.5	Cc1cccc(Nc2nc3cc(C(=O)O)ccc3c3cnccc23)c1 [drawing 427]
> 50	C#Cc1cccc(Nc2nc3cc(C(=O)OC)ccc3c3cnc(NOC)nc23)c1 [drawing 423]
> 50	NC(=O)CCNc1ncc2c(n1)c(Nc1cccc(Cl)c1)nc1cc(C(=O)O)ccc12 [drawing 425]
5.48	Cc1ncc2c(n1)c(Nc1cccc(Cl)c1)nc1cc(C(=O)O)ccc12 [drawing 422]
23	O=C(O)c1ccc2c(c1)nc(Nc1cc(F)cc(F)c1)c1nc(NC3CC3)ncc12 [drawing 429]
4.27	CC(C)OC(=O)Nc1ccc2c(c1)nc(Nc1cccc(C(F)(F)F)c1)c1nc(NC3CC3)ncc12 [drawing 441]
20.1	COc1cccc(Nc2nc3cc(C(=O)O)ccc3c3cnc(NC4CC4)nc23)c1 [drawing 431]
12.1	O=C(O)c1ccc2c(c1)nc(Nc1ccc(F)c(Cl)c1)c1nc(NCc3ccncc3)ncc12 [drawing 439]
> 50	NC(=O)c1ccc2c(c1)nc(Nc1cccc(C(F)(F)F)c1)c1nc(NC3CC3)ncc12 [drawing 435]
13	O=C(O)c1ccc2c(c1)nc(Nc1cccc(C(F)(F)F)c1)c1ccncc12 [drawing 428]
39.8	O=C(NC1CC1)c1ccc2c(c1)nc(Nc1cccc(C(F)(F)F)c1)c1nc(NC3CC3)ncc12 [drawing 436]
12.8	O=C(O)c1ccc2c(c1)nc(Nc1cccc(F)c1)c1nc(NC3CC3)ncc12 [drawing 430]
> 50	CN(C)CCNc1ncc2c(n1)c(Nc1ccc(F)c(Cl)c1)nc1cc(C(=O)O)ccc12 [drawing 432]

What follows are compounds tested on Jurkat (assay: Cell proliferation assay (Alamar Blue)). Details: Homo sapiens, 96 h, Jurkat cells, four days.
Type: cell-based
Procedure: as §1, §2

IC50 [µM]	SMILES
2.42	O=C(O)c1ccc2c(c1)nc(Nc1ccccc1)c1nc(NC3CC3)ncc12 [drawing 318]
35.9	CCOc1ncc2c(n1)c(Nc1cccc(C(F)(F)F)c1)nc1cc(C(=O)O)ccc12 [drawing 336]
0.41	COCCNc1ncc2c(n1)c(Nc1ccc(F)c(Cl)c1)nc1cc(C(=O)O)ccc12 [drawing 346]
2.37	C#Cc1cccc(Nc2nc3cc(C(=O)O)ccc3c3cnc(NCCCOC(C)C)nc23)c1 [drawing 349]
3.45	Cc1cccc(Nc2nc3cc(C(=O)O)ccc3c3cnccc23)c1 [drawing 356]

Each compound was assayed on MiaPaCa (assay: Cell proliferation assay (Alamar Blue)). Details: Homo sapiens, MIA PaCa-2, 96 h, MiaPaCa cells, four days.
Type: cell-based
Procedure: as §1, §2

IC50 [µM]	SMILES
0.68	O=C(O)c1ccc2c(c1)nc(Nc1ccccc1)c1nc(NC3CC3)ncc12 [drawing 318]
18.1	CCOc1ncc2c(n1)c(Nc1cccc(C(F)(F)F)c1)nc1cc(C(=O)O)ccc12 [drawing 336]
1.08	COCCNc1ncc2c(n1)c(Nc1ccc(F)c(Cl)c1)nc1cc(C(=O)O)ccc12 [drawing 346]
2.01	C#Cc1cccc(Nc2nc3cc(C(=O)O)ccc3c3cnc(NCCCOC(C)C)nc23)c1 [drawing 349]
8.33	Cc1cccc(Nc2nc3cc(C(=O)O)ccc3c3cnccc23)c1 [drawing 356]
